Measurements from publication PMC9822940, “Antiplasmodial activity, structure–activity relationship and studies on the action of novel benzimidazole derivatives” (Scientific Reports, 2023).
pIC50: −log10 of the molar value.

Tests used:
P. falciparum HB3 strain = assay: Antiplasmodial activity against P. falciparum HB3 strain in culture; type: cell-based, Plasmodium falciparum; settings: for pIC50 / inhibition at 10 µM: Plasmodium falciparum; for pIC50: HB3 strain (chloroquine-sensitive), read-out: IC50; for inhibition at 10 µM: HB3 strain, read-out: GI (growth inhibition percentage); for SI (selectivity index): Vero CC50 versus HB3 IC50
Description: (§1) In vitro activity of BZ. All BZ derivatives were tested at 10 μM against the HB3 strain of Pf, and for those compounds with a percentage of growth inhibition (% GI) higher than 50%, the IC50 values were determined. In addition, their cytotoxicity on epithelial Vero cell cultures was evaluated to calculate their selectivity indexes (SI), Table 1. An index of 10 or above is expected for a lead compound.
(§2) The chloroquine-sensitive […] and chloroquine-resistance 7G8 strain […] of P. falciparum were used throughout. Infected erythrocytes were kept in culture using the protocol established by Haynes et al.[44], basically utilizing human O^+ erythrocytes kept in an RPMI medium supplemented with glutamine and 10% human serum incubated in an atmosphere of 90% N2, 5% O2 and 5% CO2.

[1] = Cytotoxicity on epithelial Vero cell cultures; type: cell-based; settings: African green monkey, epithelial Vero cells
Description: as §1

[2] = system: plasma membrane of parasite culture / erythrocytes; assay: Propidium iodide incorporation assay (membrane integrity); type: cell-based, Plasmodium falciparum; settings: 3 h incubation, fluorometry
Description: The integrity of the plasma membrane under the action of certain antiplasmodial compounds was assessed through the use of two methodologies. First, the absorption of propidium iodide, to which intact membranes are impermeable, was measured. Second, the presence of heme in the culture media, which indicates a leakage of the contents of the erythrocyte or its complete lysis (hemolysis), was analyzed.
Figure 3 Membrane integrity tests. BZ 1, 5, 16, 26 and 33 were tested in triplicates in two independent experiments. (a) Incorporation of propidium iodide (PI) was analyzed through fluorometry after 3 h incubation with the compounds. (b) Hemolysis was measured by light absorbance 24 h after exposure to the compounds. One-way ANOVA with Turkey´s comparison was used for analysis of significance. ****p < 0.001.
Manufacturer’s instructions (BD PharmingenTM) were followed. Briefly, 200 µL of parasite culture at 2% parasitemia or uninfected erythrocytes, at 2% hematocrit, were incubated with each compound for 3 h at 37 °C. Untreated samples were cultured in the same plate. After incubation, 2 µL of Propidium Iodide was added and incubated for 15 min at RT while protected from light. Fluorescence was read in a fluorometer at excitation and emission wavelengths of 485/20 and 645/40 nm, respectively.

[3] = system: P. falciparum-infected cultures; assay: Intracellular reactive oxygen species (ROS) production in P. falciparum; type: cell-based, Plasmodium falciparum; settings: 1 µM; 0.5, 6 and 9 h
Description: Also, the intracellular production of oxygen reactive species (ROS) was monitored for the same antiplasmodial compounds. The level of ROS production was compared between the samples and that of the untreated parasites. […] This would point to the conformation of such molecules targeting a specific molecule or process of the parasite.  Figure 4 Effect of selected benzimidazole derivatives on ROS production. Five potent compounds were incubated with P. falciparum-infected cultures and the production of reactive oxygen species was measured through fluorometry at 0.5, 6 and 9 h after their addition at 1 µM. As positive control, a sample containing hydrogen peroxide at 200 μM was added. Samples were measured in triplicates. One-way ANOVA with Turkey´s comparison was used to measure significance with respect to the untreated control at each different time point. n = 2. (a) BZ 1, (b) BZ 5, (c) BZ 16, (d) BZ 26 and (e) BZ 33. *p < 0.05, **p < 0.01, ***p < 0.005. Intracellular ROS formation was measured in a fluorimeter using the CM-H2DCFDA reactive dye from Molecular Probes® (Eugene OR, USA). Hydrogen peroxide was used as a positive control at a final concentration of 200 µM. The level of ROS present was inferred through the amount of oxidized DCF[45].

[4] = system: mitochondria of P. falciparum parasites; assay: Mitochondrial membrane potential measurement; type: cell-based, Plasmodium falciparum; settings: 1 µM
Description: Changes in mitochondrial membrane potential, another common hallmark of programed cell death, were analyzed in the samples that had promising activities toward P. falciparum cultures. The results of adding 1 µM of each compound can be seen in Fig. 5. […] This could probably be explained by the presence of the unsubstituted picolinamide fragment, therefore more polar and less soluble in the membrane, making it harder or slower to permeate into the erythrocyte and then into the parasite, with respect to the other three.  Figure 5 Changes to mitochondrial membrane potential caused by antiplasmodial compounds. Fluorometry was used to measure the effects on the mitochondria of P. falciparum parasites caused by treatment with compounds that show activity against their growth in culture. A membrane disruptor (CCCP) was added as a positive control and untreated cultures were used as the negative one. All compounds were tested at 1 µM in triplicates, n = 3. (a) BZ 1, (b) BZ 5, (c) BZ 16, (d) BZ 26 and (e) BZ 33. *p < 0.05, **p < 0.01, ***p < 0.005. The membrane potential was measured in a flow cytometer after staining P. falciparum cultures with the DiOC6(3) dye at 10 nM (Thermo Fisher, Waltham, MA, USA). Samples were incubated for 45 min at 37 °C in the dark. Following incubation, cells were washed and resuspended using 200 µL of phosphate-buffered saline (PBS) and analyzed immediately after. The mitochondrial membrane disrupter, CCCP (50 µM), incubated for 1 h, was used as a positive control. The fluorescence intensity of stained cells was calculated using FCS Express 4 (De Novo Software, Glendale, CA, USA). As negative control, uninfected red blood cells were used and their signal was subtracted from that of the infected red blood cells.

[5] = system: 7G8 P. falciparum parasites; assay: Antiplasmodial activity against chloroquine-resistant 7G8 P. falciparum; type: cell-based, Plasmodium falciparum; settings: for pIC50: Plasmodium falciparum, 7G8 strain (chloroquine-resistant), read-out: 7G8 Pf IC50; for SI (selectivity index): Vero CC50 versus 7G8 IC50
Source text: (§3) The mechanism used by Pf to prevent intoxication with free heme once hemoglobin is degraded is to form hemozoin crystals that capture heme. Mefloquine and other common antimalarials interfere with this pathway, resulting in the death of the parasite.
as §2

[6] = system: hemozoin biocrystallization in P. falciparum; assay: Hemozoin biocrystallization / beta-hemozoin formation; type: cell-based, Plasmodium falciparum; settings: Pf cultures, 36 h
Source text: as §3

| SMILES | pIC50 (P. falciparum HB3 strain) | inhibition at 10 µM (P. falciparum HB3 strain) [%] | SI (selectivity index) (P. falciparum HB3 strain) | CC50 [1] [µM] | Membrane integrity: incorporation of propidium iodide [2] | Intracellular ROS production versus untreated parasites [3] | Change in mitochondrial membrane potential versus untreated control [4] | pIC50 [5] | SI (selectivity index) [5] | Interference with hemozoin biocrystallization [6] |
| --- | --- | --- | --- | --- | --- | --- | --- | --- | --- | --- |
| COc1ccc2[nH]c(NC(=O)c3ccc(C)cn3)nc2c1 [BZ 26, N-(5-Methoxy-1H-benzimidazol-2-yl)-5-methylpicolinamide] | 5.48 | 93.5 | 3.4 | 11.1 | some permeation in the membrane, although not significant | no significant difference at any point | shows an effect from t = 6 h onward |  |  |  |
| Cc1cc2nc(NC(=O)c3ccccn3)[nH]c2cc1C [BZ 33, N-(5,6-Dimethyl-1H-benzimidazol-2-yl)picolinamide] | 6.07 | 100 |  | 13.2 | best in keeping the membrane well preserved | early significant decrease in the natural level of ROS | do not show a difference with the untreated control up to t = 6 h |  |  |  |
| Cc1ccc(C(=O)Nc2nc3cc(Cl)ccc3[nH]2)nc1 [BZ 16, N-(5-Chloro-1H-benzimidazol-2-yl)-5-methylpicolinamide] | 5.62 | 85.6 | 3.0 | 7.2 | some permeation in the membrane, although not significant | no significant difference at any point |  | 5.59 | 2.7 | small level of disruption |
| Cc1ccc2[nH]c(NC(=O)c3ccccn3)nc2c1 [BZ 1, N-(5-methyl-1H-benzimidazol-2-yl)picolinamide] | 6.01 | 93.5 |  | 14.8 | best in keeping the membrane well preserved | early significant decrease in the natural level of ROS | do not show a difference with the untreated control up to t = 6 h | 6.02 | 15.6 |  |
